Measured values from US20090298752A1, “APLIDINE TREATMENT OF CANCERS” (PHARMA MAR, S.A., priority 1999, published 2009).

Test: Phase I, 1 h weekly infusion x3 q4wk: toxicity and pharmacokinetics
Format: in vivo, human
Parameters: CL: unit not given here
Source text: Adult patients with advanced disease, PS<3, and appropriate organ function are considered eligible; patients receive aplidine wk×3/q^4 wks. 24 solid tumour patients have been entered: median (m) age 55 y, m ECOG=1, 15/24 patients treated with =>2 treatment cycles. Seven dose levels (DL) from 133 mcg/m^2/wk to 2700 mcg/m^2/wk have been assessed: 102 infusions are evaluable for toxicity (tox). […] At 2700 mcg/m^2/wk (4 pts), 1 had G3 hiperbilirrubinemia that has been considered to be dose limiting and therefore 2700 mcg/m^2/wk DL is being expanded. […] Plasma levels >1 ng/ml 24 hours after infusion are reachable form 1800 mcg/m^2/wk. […] Aplidine appears to be clinically feasible at pharmacologically appropriate dose levels.
Aplidine was administered as a 1 hour weekly×3 every four weeks

[1] = 3-compartment model, preliminary

For aplidine, the “initial phase median half-life” value [1] was 2.4 min, the “intermediate phase median half-life” value [1] was 1.4 h and the “terminal phase median half-life” value [1] was 20.7 h. The “Hypertension G3 (worst toxicity per patient)” value (133 mcg/m^2/wk x3, 3 patients) was “(1)”, the “Transaminitis G2 (worst toxicity per patient)” value (133 mcg/m^2/wk x3, 3 patients) was 1 and the “Alk. Phos. G3 (worst toxicity per patient)” value (266 mcg/m^2/wk x3, 3 patients) was “(1)”. For the same substance, the “Injection site reaction G2 (worst toxicity per patient)” value (266 mcg/m^2/wk x3, 3 patients) was 1, the “Asthenia G2 (worst toxicity per patient)” value (532 mcg/m^2/wk x3, 3 patients) was 1 and the “Transaminitis G3 (worst toxicity per patient)” value (532 mcg/m^2/wk x3, 3 patients) was “(1)”. The “Asthenia G2 (worst toxicity per patient)” value (800 mcg/m^2/wk x3, 3 patients) was 1(1), the “Asthenia G3 (worst toxicity per patient)” value (800 mcg/m^2/wk x3, 3 patients) was 1(1) and the “CPK elevation G1 (worst toxicity per patient)” value (800 mcg/m^2/wk x3, 3 patients) was 1. For the same substance, the “Hypertension G1 (worst toxicity per patient)” value (800 mcg/m^2/wk x3, 3 patients) was 1, the “Injection site reaction G2 (worst toxicity per patient)” value (800 mcg/m^2/wk x3, 3 patients) was 1 and the “Nausea/vomiting G2 (worst toxicity per patient)” value (800 mcg/m^2/wk x3, 3 patients) was 3. For the same substance, the “Transaminitis G2 (worst toxicity per patient)” value (800 mcg/m^2/wk x3, 3 patients) was 1, the “Asthenia G2 (worst toxicity per patient)” value (1200 mcg/m^2/wk x3, 4 patients) was 3 and the “Injection site reaction G2 (worst toxicity per patient)” value (1200 mcg/m^2/wk x3, 4 patients) was 1. For the same substance, the “Myalgia G3 (worst toxicity per patient)” value (1200 mcg/m^2/wk x3, 4 patients) was “(1)”, the “Alk. Phos. G2 (worst toxicity per patient)” value (1800 mcg/m^2/wk x3, 4 patients) was 1 and the “Asthenia G2 (worst toxicity per patient)” value (1800 mcg/m^2/wk x3, 4 patients) was 2. The “Injection site reaction G2 (worst toxicity per patient)” value (1800 mcg/m^2/wk x3, 4 patients) was 1, the “Nausea/vomiting G2 (worst toxicity per patient)” value (1800 mcg/m^2/wk x3, 4 patients) was 3 and the “Transaminitis G2 (worst toxicity per patient)” value (1800 mcg/m^2/wk x3, 4 patients) was 1. For the same substance, the “G3 hiperbilirrubinemia (dose limiting)” value (2700 mcg/m^2/wk (4 pts)) was 1, the “Asthenia G2 (worst toxicity per patient)” value (2700 mcg/m^2/wk x3, 8 patients) was 1(1) and the “Asthenia G3 (worst toxicity per patient)” value (2700 mcg/m^2/wk x3, 8 patients) was 1(1). For the same substance, the “Injection site reaction G2 (worst toxicity per patient)” value (2700 mcg/m^2/wk x3, 8 patients) was 3, the “Nausea/vomiting G2 (worst toxicity per patient)” value (2700 mcg/m^2/wk x3, 8 patients) was 2 and the “Transaminitis G2 (worst toxicity per patient)” value (2700 mcg/m^2/wk x3, 8 patients) was 1. For the same substance, the “Bilirrubin G3 (worst toxicity per patient)” value (2700 mcg/m^2/wk x3, 8 patients, footnote DLT) was 1(1)^(2), the “CPK elevation G1 (worst toxicity per patient)” value (3600 mcg/m^2/wk x3, 2 patients) was 1 and the clinically feasible dose (1 hour infusion weekly with one week rest) was ≤ 3600 mcg/m^2 every week. For the same substance, the haematological tox (Example 13, 102 infusions) was “No haematological tox”, the CL (Example 13, median) was 0.60 and the “m Vss” value (Example 13, median) was 308 L/m^2. The “m elimination half life” value (Example 13, median) was 14.2 h, the Bone marrow toxicity (Example 17) was “has not been reported” and the “coefficient of variation of CL” value (Example 17, interpatient) was 33%. The Vss (Example 17, median (quartiles)) was 345 (220-398) L/m^2, the “t ½” value (Example 17, median (quartiles)) was 15.8 (13.3-19.5) h and the “plasma CL” value (Example 17, median, quartiles 288-407) was 329 mL/min/m^2. For the same substance, the “dose from which potentially therapeutic plasma levels are achievable” value (in vivo) was ≥ 1200 μg/m^2 and the “Plasma levels 24 hours after infusion” value (reachable from 1800 mcg/m^2/wk) was > 1 ng/mL.
